The values below come from US20150010475A1, “CRLF-2 BINDING PEPTIDES, PROTOCELLS AND VIRAL-LIKE PARTICLES USEFUL IN THE TREATMENT OF CANCER, INCLUDING ACUTE LYMPHOBLASTIC LEUKEMIA (ALL)” (STC. UNM, priority 2011, published 2015).

≈ marks a conversion by molar mass, not a printed value. A value given as a limit tells only on which side of the number the result lay.

One series relates to Hep3B. Briefly: Cytotoxicity of DOX, free or delivered in protocells or liposomes, in Hep3B. Type of series: cell-based. To be noted: as DOX. From the text: For toxicology studies there are two major issues which must be addressed: silica loading in the tissues, derived from the mesoporous silica core of the protocell, and non-targeted or “off target” delivery of the therapeutic cargos to normal tissues. […] Nevertheless, we will systematically evaluate all major organs and tissues in treated mice for silica deposition and cellular damage after treatment with loaded and unloaded protocells. […] As a benchmark, we compared oxidative stress and cell viability of neutral, positively and negatively-charged targeted protocells with corresponding liposomes and other control particles at 10^9 particles/mL corresponding to ˜1-2 μg/mL (FIG. 24). […] In preliminary studies (FIG. 25), we also compared the IgG response of C57Bl/6 mice immunized twice with 10 μg doses of targeted and SP94-targeted protocells to that of virus-like particles (VLPs) conjugated to the same concentration of targeting peptide (MS2 SP94). […] When considering therapeutically administered doses, for the hepatocellular carcinoma cell line Hep3B, the LC50 and LC90 values of free DOX are 150 and 500 ng/mL, respectively. […] As discussed above, Si loading will be assessed by ICP-MS. […]

For series [1], the target named is human CRLF2 expressed on the cell surface (BaF3-CRLF2, REH-CRLF2, MHH CALL 4, MUTZ5 cells) (human) (UniProt Q9HC73). Nature of the series: protocell binding to BaF3-CRLF2, MUTZ5 and MHHCALL4 cells, against untargeted protocells, the parental BAF3 line or CRLF2(-) NALM6 cells (FIG. 19, 20).
For a further series, the target named is T1, CRLF2 (Homo sapiens, UniProt Q9HC73).
T1 construct: expressed in transfected cells
T1 sequence (Q9HC73 23-371): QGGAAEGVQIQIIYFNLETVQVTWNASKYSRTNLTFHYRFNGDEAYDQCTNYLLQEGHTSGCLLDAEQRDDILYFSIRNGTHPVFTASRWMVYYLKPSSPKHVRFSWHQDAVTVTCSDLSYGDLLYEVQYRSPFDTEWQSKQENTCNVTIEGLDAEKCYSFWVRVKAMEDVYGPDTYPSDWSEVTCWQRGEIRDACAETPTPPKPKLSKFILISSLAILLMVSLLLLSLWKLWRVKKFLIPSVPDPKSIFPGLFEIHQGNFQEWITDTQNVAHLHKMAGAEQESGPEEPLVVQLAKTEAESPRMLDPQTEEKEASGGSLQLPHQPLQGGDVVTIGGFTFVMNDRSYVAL
Nature of the series: Flow cytometry binding of M13 phage displaying peptide to BaF3-CRLF2 cells. The following applies: for binding to CRLF2 (peptides pulled from enriched phage population): phage display selection on BaF3 cells expressing CRLF2. The protocol:
(§1) Flow cytometry is used to evaluate binding of individual phage clones within consensus sequences. In this case, a saturable binding curve can be constructed, allowing for the determination of the dissociation constant (Kd) of phage displaying potentially specific peptides that bind cells with high levels of CRLF2 expression but not parental cell lines with minimal expression.
The selections were carried out on BaF3 cells that had been induced to create the cell receptor CRLF2 and express it on their surface. Negative selections were carried out on the parental cell line (no CRLF2) in order to assure that the ligand identified was in fact binding to the desired target and not to other features on the surface of the cells.
(§2) Affinity selections on cellular targets are complicated by the heterogeneity of surface protein expression on mammalian cells, which frequently results in a large number of peptides that bind unsuitable targets. A major goal of the work we propose is to create an efficient selection/counter-selection scheme. To illustrate our strategy, the gene encoding human CRLF2 was introduced into BaF3 cells (a murine IL3-dependent pro-B cell line) and the protein's abundant surface expression was confirmed by FACS (as shown in Project 2). The resulting BaF3-CRLF2 cells, together with the BaF3 parental line (which specifically lacks CRLF2), served as a matched selection/counter-selection pair and provided a convenient means of discarding affinity selectants that bind the many non-CRLF2 receptors inevitably encountered on the BaF3 surface.
(§3) In this case, a saturable binding curve can be constructed, allowing for the determination of the disassociation constant (Kd) of phage displaying potential specific peptides that bind cells with high levels of CRLF2 expression but not parental cell lines with minimal expression. Data shown for the MTAAPVH phage clone on BaF3/CRLF2 (A) and parental BaF3 cells. (B) Binding curves were constructed by titrating the amount of phage with constant cell concentrations in order to quantitatively describe binding. Non-specific binding was determined by incubating wild-type phage with the same cell lines.
CRLF2 may be targeted using its natural ligand TSLP or with peptides that are specifically directed towards CRLF2; both approaches are being developed. […] Peptides selected by affinity for Ba-F3-CRLF2 cells were counter-selected against parental Ba-F3 cells to eliminate any phage binding receptors common to both cell types. We find that a matched selection/counter-selection pair greatly increases the specificity of the affinity selection process. It is important to note that in the VLP screening method, each VLP encapsidates its own mRNA. This means that the nucleotide sequences encoding any particular VLP and its guest peptide or protein are contained within the particle itself and can be recovered by reverse transcription and polymerase chain reaction.
On the technique in general: A flow cytometer gives signals particle by particle.

Another series deals with BaF3 parental cells. Briefly: Flow cytometry binding of M13 phage displaying peptide to BaF3 parental cells. Details: species or system murine.
From the text: as §1, §2, §3
CRLF2 may be targeted using its natural ligand TSLP or with peptides that are specifically directed towards CRLF2; both approaches are being developed. […]

Series [2] deals with MHH CALL 4, Mutz-5 and BaF3/CRLF-2 cells. Nature of the series: Internalization of CRLF-2-targeted protocells by target cells. Type of series: cell-based, human. The following applies: peptide on protocell surface. The protocol:
The upper-left portion of FIG. 7 depicts the internalization efficacy of CRLF-2-targeted protocells in the absence of the R8 peptide. The upper right portion of FIG. 7 presents images of CRLF-2-positive (MHH CALL 4) and CRLF-2-negative (MOLT 4) cells exposed to targeted protocells for 37° C. for two hours. N.D.=not detectable; bilayer composition=DOIDA in DSPC with 5 wt % DSPE; approximate peptide density=10 targeting peptides/protocell and ˜500 H5WYG peptides/protocell. Targeted protocells can become internalized within target cells (MHH CALL 4, Mutz-5 and BaF3/CRLF-2) over time. However, overall internalization efficiency is only ˜20%, which could lead to non-specific cytotoxicity. The lower-left portion of FIG. 7 depicts the internalization efficacy of CRLF-2-targeted protocells in the presence of the R8 peptide. The lower right portion of FIG. 7 presents images of CRLF-2-positive (MHH CALL 4) and CRLF-2-negative (MOLT 4) cells exposed to targeted protocells for 37° C. for two hours. N.D.=not detectable; bilayer composition=DOIDA in DSPC with 5 wt % DSPE; approximate peptide density=10 targeting peptides/protocell and −500 H5WYG peptides/protocell.
The upper-left portion of FIG. 8 depicts internalization kinetics for CRLF-2-targeted protocells in the absence and presence of the R8 peptide. […]

Series [3] has as its target T2, human CRLF2 expressed on the cell surface (BaF3-CRLF2, REH-CRLF2, MHH CALL 4, MUTZ5 cells) (human), Q9HC73.
T2 chain: T1 sequence (Q9HC73 23-371)
Briefly: flow cytometry, M13 phage on BaF3-CRLF2 cells (FIG. 3).

Series [4] has as its target T2, human CRLF2 expressed on the cell …. Nature of the series: binding of M13 phage to BaF3-CRLF2 cells (FIG. 18).
Series [5] addresses T3, human CRLF2 expressed on the cell surface (BaF3-CRLF2, REH-CRLF2, MHH CALL 4, MUTZ5 cells) (human, UniProt Q9HC73 23-371).
T3 construct: whole, on cells; Parental BaF3 / REH cells lack CRLF2 and served as negative controls; also called TSLP receptor; TSLPR
T3 sequence (looked up): T1 sequence (Q9HC73 23-371)
Briefly: flow cytometry, Alexa-fluor-647 labeled particles incubated 1 h with BaF3/CRLF-2 cells.

Take `COc1cccc2c1C(=O)c1c(O)c3c(c(O)c1C2=O)C[C@@](O)(C(=O)CO)C[C@@H]3O[C@H]1C[C@H](N)[C@H](O)[C@H](C)O1` [free DOX, doxorubicin]: in the series with Hep3B, the LC50 was 0.15 µg/mL (≈ 0.276 µM) and the LC90 was determined as 0.5 µg/mL (≈ 0.92 µM).
For the molecule “CRLF2-targeted protocells conjugated with the CRLF2-targeting peptide TDAHASV”, the fold higher affinity in series [1] is 1000 fold.
For FSYLPSH, the “binding to CRLF2 (peptides pulled from enriched phage population)” value (“binding to CRLF2” below) with CRLF2 is “exhibited binding to CRLF2”.
For MTAAPVH, in the series with CRLF2 (BaF3/CRLF2, non-specific binding from wild-type phage), the “Specific binding of phage clone to CRLF2 positive cells” value is recorded as “significant”. Further, in the series with CRLF2, the “binding to CRLF2” value was “best binder”. Besides, the “Specific binding of phage clone to the parental cells” value in the series on BaF3 parental cells (parental BaF3) was “extremely minimal”. The “promotion of internalization of protocells by CRLF2-positive cells” value in series [2] was “does not promote rapid internalization”.
Take “RRRRRRRR [R8, 8 mer polyarginine that promotes internalization, reference compound]”: in series [2], the “promotion of internalization of protocells by CRLF2-positive cells” value is “promoted this selective internalization in a density-dependent manner”.
For the molecule TDAHASV [peptide ligand to CRLF2], the Kd – broadly, the concentration at which binding is half-saturated – at CRLF2 (peptide displayed on M13 phage, BaF3-CRLF2 cells) was 27.9 nM; in the series with BaF3 parental cells (peptide displayed on M13 phage, read-out: Kd for the BaF3 parental line), less than 3000 nM. Besides, the “binding to CRLF2” value on CRLF2 is “exhibited binding to CRLF2”. Besides, the “binding to the BaF3 parent” value with BaF3 parental cells (peptide displayed on M13 phage) is given as “not showing significant binding”.
For TDAHASV (modifications not checked) [M13 filamentous phage displaying the CRLF2-binding peptide TDAHASV], the Kd was 3 nM in series [3] and 27.9 nM in series [4].

B1: VLPs not displaying any additional peptides (other)
chain: ASNFTQFVLVDNGGTGDVTVAPSNFANGVAEWISSNSRSQAYKVTCSVRQSSAQNRKYTIKVEVPKVATQTVGGVELPVAAWRSYLNMELTIPIFATNSDCELIVKAMQGLLKDGNPIPSAIAANSGIY
notes: Control particle; also called nontargeted VLPs; particles not displaying any additional peptides
In the case of B1, the binding result in series [5] is listed as “no binding”.
